Experimental data from paper PMC10574094, “Discovery of a SHP2 Degrader with In Vivo Anti-Tumor Activity” (Molecules, 2023).
Entries after “also recorded” stand apart in the source; their conditions may differ.

Legend:
[1] = tested on: pERK1/2; test: pERK1/2 inhibition by Western blotting in KYSE-520 cells; type: cell-based; details: Homo sapiens, 16 h
Method: (§1) HEK293, SKBR3, U2OS, MCF7 and A549 cells were grown in DMEM supplemented with 10% FBS, penicillin (50 units/mL), and streptomycin (50 μg/mL) in a 37 °C incubator containing 5% CO2. KYSE-520 and H358 cells were grown in RPMI-1640 supplemented with 10% FBS, penicillin (50 units/mL), and streptomycin (50 μg/mL) in a 37 °C incubator containing 5% CO2. For western-blot analysis, protein samples were separated by SDS-PAGE, transferred to nitrocellulose membranes, and incubated overnight at 4 °C with corresponding primary antibodies diluted in 5% BSA in phosphate-buffered saline Tween (PBST). SuperSignal™ West Pico PLUS (PI34580; Thermo Scientific) was used to visualize the antibodies in the bioanalytical imaging system (Azure Biosystems c500). Anti-p-ERK1/2 (T202/Y204) (4370), and anti-ERK1/2 (4696) were purchased from Cell Signaling Technology. Anti-GAPDH (sc-365062), anti-SHP2 (sc-7384), anti-SHP1 (sc-7289), and anti-Actin (sc-8432) antibodies were purchased from Santa Cruz. Anti-PTP1B (ab244207) antibody was purchased from Abcam. For colony formation assay, a total of approximately 200–500 cells were seeded to each well in a 12-well plate. The wells were then treated with DMSO, compound P9 and 3 at 37 °C for 3 weeks, gently washed, and stained with crystal violet.

[2] = Tolerability and body weight in xenograft study; type: in vivo; details: mice, 25 mg/kg or 50 mg/kg daily IP
Method: (§2) Experiments on mice were carried out in accordance with the regulations of the Institutional Animal Care and Use Committees at Purdue University. All mice were housed under pathogen-free conditions in the animal facility and received autoclaved water and food. Eight to ten weeks-old Nude mice were used in the study.
(§3) For the xenograft tumor study, KYSE-520 cells were suspended in PBS and a total of 3 × 10^6 cells (100 μL) were subcutaneously implanted into both the left and right flank using a 27-gauge needle. Tumor volume was calculated using the formula V = (W^2 × L)/2 for caliper measurements. Once the tumor volume reaches 200 mm^3, daily intraperitoneal injection of either control, 25 mg/kg or 50 mg/kg of compound P9 was performed. Mice were sacrificed after injection for 18 days, and tumors were collected for biochemical analysis.

[3] = tested on: KYSE-520 xenograft; test: KYSE-520 xenograft tumor growth; type: in vivo, mice; details: 18 days
Method: as §2, §3

[4] = target: T1, SHP2 (Homo sapiens, UniProt Q06124); test: SHP2 degradation by Western blotting in HEK293 cells; type: cell-based; parameters: endogenous in cells; host or cells: HEK293; details: HEK293 cells
T1 sequence (Q06124 1-593): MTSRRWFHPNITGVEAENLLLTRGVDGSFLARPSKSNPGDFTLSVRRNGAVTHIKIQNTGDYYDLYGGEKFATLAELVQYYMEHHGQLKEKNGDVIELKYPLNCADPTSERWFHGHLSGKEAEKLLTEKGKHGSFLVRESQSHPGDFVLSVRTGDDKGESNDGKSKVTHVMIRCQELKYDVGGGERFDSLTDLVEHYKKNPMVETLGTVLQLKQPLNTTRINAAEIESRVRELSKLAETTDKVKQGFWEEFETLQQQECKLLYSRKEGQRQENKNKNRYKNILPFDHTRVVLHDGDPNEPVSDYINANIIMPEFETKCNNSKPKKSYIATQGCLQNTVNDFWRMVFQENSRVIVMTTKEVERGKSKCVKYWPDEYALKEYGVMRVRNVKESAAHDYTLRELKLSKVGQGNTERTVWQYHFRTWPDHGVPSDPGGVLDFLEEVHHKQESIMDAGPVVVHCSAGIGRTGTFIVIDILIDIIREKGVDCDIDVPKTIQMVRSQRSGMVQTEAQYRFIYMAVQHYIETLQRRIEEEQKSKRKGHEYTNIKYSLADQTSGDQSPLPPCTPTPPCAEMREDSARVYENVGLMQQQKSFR

[5] = tested on: KYSE-520, SKBR3, U2OS, MCF7, H358 and A549 cells; test: Colony formation assay; type: cell-based; details: 3 weeks treatment
Method: as §1

[6] = tested on: SHP1, PTP1B, TC-PTP, LYP, PRL1, PRL2; test: Western blot of other PTPs in HEK293 cells (degrader selectivity); type: cell-based, human; details: 1 μM P9, 16 h
Method: as §1

[7] = target: T1, SHP2; test: SHP2 degradation by Western blotting in KYSE-520 cells; type: cell-based; parameters: endogenous in cells; host or cells: KYSE-520; details: 16 h
Method: as §1

With `Cc1ncsc1-c1ccc([C@H](C)NC(=O)[C@@H]2C[C@@H](O)CN2C(=O)[C@@H](NC(=O)CCCCCCCCCN2CCN(C(=O)CCCCCC3(CN)CCN(c4cnc(Sc5cccc(Cl)c5Cl)c(N)n4)CC3)CC2)C(C)(C)C)cc1` [P9, (2S,4R)-1-((S)-2-(10-(4-(6-(1-(6-amino-5-((2,3-dichlorophenyl)thio)pyrazin-2-yl)-4-(aminomethyl)piperidin-4-yl)hexanoyl)piperazin-1-yl)decanamido)-3,3-dimethylbutanoyl)-4-hydroxy-N-((S)-1-(4-(4-methylthiazol-5-yl)phenyl)ethyl)pyrrolidine-2-carboxamide] the EC50 [1] was roughly 240 nM, the tolerability [2] was “well tolerated” and the animal body weight ([2]; during treatment) was “preserved; also recorded: no significant effect on mice body weight”. For the same compound, the “effect on tumor burden” value ([3]; 25 mg/kg daily IP) was “decrease in tumor burden”, the “effect on tumor burden” value ([3]; 50 mg/kg daily IP) was “nearly complete tumor regression” and the “time at which maximal SHP2 depletion was achieved” value [4] was 16 h. For the same compound, the DC50 ([4]; 16 h of treatment, read-out: DC50 (concentration required for 50% degradation of protein)) was 35.2 ± 1.5 nM, the hook effect ([4]; tested concentration range) was “no significant hook effect” and the SHP2 protein degraded ([4]; within 6 h of P9 treatment) was “Over 90%”. For the same compound, the “growth inhibition in colony formation assay compared with compound 3” value [5] was “improved efficacy in inhibiting the growth of these cancer cells”, the “protein level of other PTPs” value [6] was “none of the other PTPs including SHP1, PTP1B, TC-PTP, LYP, PRL1, and PRL2, were affected” and the DC50 [7] was roughly 130 nM.
